The test system of test [1] is NSCs. Briefly: Proliferation marker expressions (BrdU, ki-67) of the NSCs, immunofluorescence staining. The test is classed as cell-based, mice. The following applies: 0.1, 1, 10 μM for 16 hours, especially 1 μM. As to the method:
To prepare the NSCs, after removal of meninges, subventricular zones (SVZ) of lateral ventricles from adult mice brain (4 week-of-age) are aseptically isolated and dissociated as previously described (J Cell Sci 2006; 119, 4467-4474). All steps are operated under sterile conditions. Then, neurosphere culture are prepared in neurobasal (NB) medium (Gibco BRL) supplemented with 2% of B27 (Gibco BRL), 2 mM of L-glutamine (PAN Biotech), 100 U/ml of penicillin/[…] of streptomycin (Gibco BRL). For maintenance and expansion of the cultures, the NB/B27 is further supplemented with 2 μg/mL of heparin (Sigma), 20 ng/mL of FGF-2 (R&D Systems) and 20 ng/mL of EGF (R&D Systems). […] For clonal/low density cultures, primary neurospheres grown at high density are dissociated into a single cell suspension and reseeded into 96-well plates at 100 cells per ml of media and the number of newly formed neurospheres is counted after 7 days. In addition, the Bmi-1 expressions, SOX2 expressions, Nestin expressions, Musashi-1 expressions, BrdU expressions and ki-67 expressions of the newly formed neurospheres are determined by the immunofluorescence staining.
To measure the effect of the administration of the Compound 1 on proliferation marker expressions of the NSCs, the NSCs treated with the Compound 1 are detected by the immunofluorescence staining. […]

For test [2], the system named is primary cortical cultures (PCCs). In words: Lactate dehydrogenase (LDH) release rate analysis, H2O2-treated PCCs. The test is classed as cell-based, C57BL/6 mice. The procedure: H2O2 can cause an oxidative damage to cells and a destruction of the cell membrane, and consequently the LDH is released into medium. For that reason, the lower rate of the LDH released into the culture medium is represented the fewer damaged cells and better cell protection effect of sample.
(§1) Test cells are primary cortical cultures (PCCs) in this example. The PCCs are prepared from cerebral cortexes of gestation day 17 embryos from C57BL/6 mice as described previously (Cell Death Differ 2008; 15: 143-151). The PCCs are maintained under serum-free conditions in neurobasal medium (Invitrogen), supplemented with B-27 supplement (2%; invitrogen), glutamine (0.5 mM; Sigma Aldrich), glutamate ([…]; Sigma Aldrich), penicillin (100 U/ml) and streptomycin ([…]; Invitrogen). At 4 days in vitro, half of the medium is removed and replaced with fresh medium without glutamate. The cultures are maintained in a humidified incubator at 37° C. with 5% CO2. At 7 days in vitro, the PCCs are used for experimentation.
The PCCs are seeded in a 24-well plate and are allowed to stand for 20 minutes. […] The PCCs are maintained at 37° C. in a humidified atmosphere of 5% CO2 for 24 hours. After incubation, the culture medium is collected and washed twice with phosphate buffered saline (PBS), and then are analyzed the LDH activity in the culture medium by using LDH Cytotoxicity Detection Kit (TaKaRa Bio Laboratories, Japan) to calculate the percentage cytotoxicity, which is represented the situation of cells damage, of the PCCs. The lower percentage cytotoxicity presents the lower LDH activity detected and less severe of cells damages, which indicates the better cell protection effect of the sample. The LDH activity is measured by a colorimetry. After a reaction between enzyme and particular substrate, an absorbance of the reaction solution and the LDH activity is linearly correlated. The LDH activity (U/10^−3 L) is calculated by a reduced optical density slope at a wavelength of 340 nm within three minutes. A lactate dehydrogenase activity unit is defined as a catalytic consumption of […] NADH per minute.

Test [3] relates to NSCs. Briefly: Neurosphere self-renewal assay of the NSCs. The test is classed as cell-based, mice. The following applies: 0.1, 1, 10 μM for 16 hours vs control group, especially 1 μM. The procedure:
To determine whether the HIF-1α-Bmi-1 pathway regulates the proliferation of the NSCs a neurosphere self-renewal assay is performed in this example. In the neurosphere self-renewal assay, the NSCs are cultured in non-adherent cultures to form neurospheres for examining the effect of the HIF-1α-Bmi-1 pathway on the self-renewal of the neurosphere.
To prepare the NSCs, after removal of meninges, subventricular zones (SVZ) of lateral ventricles from adult mice brain (4 week-of-age) are aseptically isolated and dissociated as previously described (J Cell Sci 2006; 119, 4467-4474). All steps are operated under sterile conditions. Then, neurosphere culture are prepared in neurobasal (NB) medium (Gibco BRL) supplemented with 2% of B27 (Gibco BRL), 2 mM of L-glutamine (PAN Biotech), 100 U/ml of penicillin/0.1 mg/L of streptomycin (Gibco BRL). For maintenance and expansion of the cultures, the NB/B27 is further supplemented with 2 μg/mL of heparin (Sigma), 20 ng/mL of FGF-2 (R&D Systems) and 20 ng/mL of EGF (R&D Systems). Neurosphere cultures are maintained at 37° C. in a humidified incubator with 5% CO2. For clonal/low density cultures, primary neurospheres grown at high density are dissociated into a single cell suspension and reseeded into 96-well plates at 100 cells per ml of media and the number of newly formed neurospheres is counted after 7 days. In addition, the Bmi-1 expressions, SOX2 expressions, Nestin expressions, Musashi-1 expressions, BrdU expressions and ki-67 expressions of the newly formed neurospheres are determined by the immunofluorescence staining.
In another example, the NSCs are treated with different dosages of the Compound 1 (0.1 μM, 1 μM and 10 μM) for 16 hours, wherein the NSCs treated with 1 μM of the Compound 1 are further transduced with the LV-Bmi-1-sh or LV-HIF-1α-sh respectively. Then the NSCs are cultured in the neurosphere culture to observe the frequency of the neurosphere formation, the self-renewal potential of the NSCs and the neurosphere size. […]

The subject of the next test is Bmi-1. In words: Bmi-1 expressions in the PCCs with hypoxic treatment, Western blot. The test is classed as cell-based, C57BL/6 mice. The procedure:
as §1
The relationship between the HIF-1α activation and the Bmi-1 expressions is further analyzed by the Western blot analysis in this example. […] One group of the PCCs is transfected with LV-Bmi-1 to transient express the Bmi-1. Another group of the PCCs is treated with 1 μM of 2-ME2 for 16 hours and then transfected with the LV-Bmi-1. The other group of the PCCs is transfected with LV-GFP as the control group. In FIG. 6B, the PCCs transfected with the LV-Bmi-1 overexpress the Bmi-1. However, the overexpressions of the Bmi-1 are not affected by the pretreatment of the PCCs with 2-ME2. […]
(In general: A western blot detects proteins with antibodies after separation by electrophoresis.)

This note sets out measurements from patent US10035791B2, “Bicyclic compound and pharmaceutical composition thereof for treating stroke and use thereof” (China Medical University, priority 2016, dated 2018).

“Also recorded” adds a separate entry of the source.

`COC(=O)C1=CO[C@@H](O)[C@@H]2C(COC(=O)[C@@H](N)Cc3ccccc3)=CC[C@H]12` [Compound 1]: in the test with NSCs [1] (FIG. 12B), the “proportion of the BrdU+ cells in the neurosphere culture” value was “increases the proportion”. In addition, the “proportion of the ki-67+ cells in the neurosphere culture” value with NSCs [1] (FIG. 12C) is recorded as “increases the proportion”. In addition, the “LDH release rate of the PCCs treated with H2O2” value in test [2] (compound 0.1 μM, FIG. 1G) was 30%; in test [2] (compound 100 μM, 10^-4 mol/L H2O2, 24 hours, FIG. 1F), “lower LDH release rate; also recorded: reduces most LDH release rate”. In test [2] (tested 0.1, 1, 10 and 100 μM, FIG. 1G), the “concentration at which the LDH release rate of the PCCs is reduced most” value is 100 µM. Also, the “frequency of the neurosphere formation” value with NSCs [3] (FIG. 11F) is listed as “significantly higher frequency of the neurosphere formation”. In addition, the “self-renewal potential of the NSCs” value in the test on NSCs [3] (FIG. 11G) is “more self-renewal potential”. Moreover, in the test on NSCs [3] (FIG. 11H), the neurosphere size result is on record as “larger neurosphere size”.

As to `COc1cc2c(cc1O)CC[C@@H]1[C@@H]2CC[C@]2(C)[C@@H](O)CC[C@@H]12` [Compound 2-ME2, 2-Methoxyestradiol, reference compound], the “overexpressions of the Bmi-1 in PCCs transfected with the LV-Bmi-1” value with Bmi-1 (1 μM 2-ME2 for 16 hours before transfection, FIG. 6B) is “not affected”. Besides, the “Bmi-1 expressions of the PCCs” value in the test on Bmi-1 (1 μM 2-ME2 for 16 hours, hypoxic treatment, FIG. 6C) is “reduced”.
